The text below walks through data of patent publication US20250177347A1, “SCLAREOL OR SCLAREOLIDE FOR USE IN THE TREATMENT OF INFLAMMATORY SKIN CONDITIONS” (ISP Investments LLC, priority 2022, published 2025).

Assay [1] deals with C. tropicalis var. tropicalis KCTC17762. The note with it: cited from earlier work.
Assay [2] has as its system C. albicans KCTC7965. Conditions: cited from earlier work.
For assay [3], the system named is C. auris KCTC17809. The note with it: cited from earlier work.
In assay [4] the test system is C. parapsilosis KACC49573. Conditions: cited from earlier work.
Assay [5] relates to C. parapsilosis var. parapsilosis KACC45480. The note with it: cited from earlier work.
The test system of assay [6] is C. glabrata KCTC7219. The note with it: cited from earlier work.
Assay [7] concerns epidermal lipids. The assay is described as follows: Epidermal lipids, Nile Red staining, in biopsies of healthy human abdominal skin in culture. Format: cell-based. The protocol:
Objective: The aim of this study is to show the effect of sclareolide on the synthesis of epidermal lipids in biopsies of healthy abdominal skin.
Method: Epidermal lipids were assessed by fluorescent staining by using the fluorescent dye Nile Red.
[…] Control biopsies received only 0.1% DMSO. The epidermal lipids staining was performed using paraffin sections incubated with 100 nM of Nile Red solution (Sigma) for 10 minutes. The sections were then examined under a fluorescence microscope (Nikon Eclipse Ni-E microscope). Red fluorescence was then observed (using NiS-AR Nikon acquisition software) and quantified by image analysis (Volocity® image analysis software, Improvision).
(§1) This effect may be associated with a better quality of the skin barrier function.

Assay [8] concerns keratin 10. The assay is described as follows: Keratin 10 immunohistochemistry in biopsies of healthy human abdominal skin in culture. Format: cell-based. The protocol: Objective: The aim of this study is to show the effect of sclareolide on the synthesis of keratin 10 in biopsies of healthy abdominal skin.
Method: keratin 10 was assessed by immunohistochemistry with a specific antibody. […] Control biopsies received only 0.1% DMSO. The immunostaining was performed using paraffin sections incubated in the presence of anti-keratin 10 antibody (rabbit monoclonal, Abcam). After an hour and a half of incubation followed by rinses, the sections were incubated in the presence of the secondary anti-rabbit antibody coupled with a fluorophore (Alexa Fluor® 488, Invitrogen). The sections were then examined under a fluorescence microscope (Nikon Eclipse Ni-E microscope). […] fluorescence was then observed (using NiS-AR Nikon acquisition software) and quantified by image analysis (Volocity® image analysis software, Improvision).
as §1

The subject of assay [9] is scalp reconstructed human epidermis. The assay can be described thus: Malassezia restricta applied topically to scalp reconstructed human epidermis: histology and cytokine ELISA. Conditions: sclareolide 0.12% topical, two applications. Type of assay: cell-based. The text has this:
Objective: Sclareolide anti-inflammatory effect and barrier function prevention was quantified by cytokine quantification and histological observation respectively
Protocol: Malassezia restricta was applied topically to a scalp reconstructed human epidermis. This in vitro model is reconstructed from keratinocytes isolated from scalp skin. More precisely, the location of the epidermis used to isolate keratinocytes is interfollicular epidermis. These interfollicular keratinocytes was harvested and transferred into a cell culture insert and after several days of reconstruction, 100 μl of Malassezia restricta was applied on the top of the epidermis. Two days later, 100 μL sclareolide at a concentration of 0,12% was applied on the top of the epidermis, another application was performed after 24 hours. Ninety-six hours after the beginning of the Malassezia treatment, scalp reconstructed epidermis was stopped to performed histological analysis to observe modifications in the upper layers of the epidermis and the supernatant was harvested to measure inflammatory cytokine release by ELISA method.
In parallel, sclareolide decreased the inflammation induced by Malassezia restricta by the decrease of interleukin-8 release by 40,3% illustrated by FIG. 2.

In assay [10] the test system is Malassezia restricta. The assay can be described thus: Broth microdilution MIC assay (EUCAST guidelines, slight modifications), resazurin fluorescence. Format: cell-based. Conditions: 48 h-60 h at 34° C. The protocol: Objective: Sclareolide antifungal potential on Malassezia restricta was evaluated by the broth microdilution method.
Protocol: Malassezia restricta was routinely grown on modified Leeman-Notman (mLN) agar. The broth microdilution assay was performed following EUCAST guidelines (www.eucast.org) with slight modifications. Between five and ten colonies were suspended in a modified RPMI 1640 media supplemented with resazurin at a D.O (Density Optical) of 0.1. In a 96 well plate, serial dilutions of sclareolide (0.00023% to 0.12%) from a 24% stock solution in DMSO, and ketoconazole (0.001 to 0.25 μg/ml) solutions were prepared in modified RPMI 1640 culture medium. An equal volume of Malassezia restricta inoculum was added to the test samples at different concentrations. Following 48 h-60 h of incubation at 34° C., resazurin fluorescence was analyzed at 530 nm and 590 nm.
Results and conclusion: Results are presented as relative fluorescence intensity compared to DMSO control. MIC is defined as the lowest drug concentration that prevents growth of microorganisms.
In general terms: Dilution methods test growth across graded concentrations, often in twofold steps.

[11] abbreviates: sclareolide 0.0025% in 0.1% DMSO, twice a day for 48 hours topically, vs 0.1% DMSO control.
Where [12] appears, read: skin biopsies cultures, composition comprising of sclareolide.
Where [13] appears, read: modified RPMI 1640, relative fluorescence vs DMSO control.

Each structure is given as a SMILES string. In brackets after ≈: the same amount, converted by molar mass.

On to `C=C[C@](C)(O)CC[C@@H]1[C@@]2(C)CCCC(C)(C)[C@@H]2CC[C@@]1(C)O` [Sclareol], for which the “Growth, biofilm formation, and yeast-hyphal transition” value is “inhibiting growth, biofilm formation, and yeast-hyphal transition” in [1]; “inhibiting growth, biofilm formation, and yeast-hyphal transition” in assay [2]; “inhibiting growth, biofilm formation, and yeast-hyphal transition” in assay [3]; “inhibiting growth, biofilm formation, and yeast-hyphal transition” in [4]; “inhibiting growth, biofilm formation, and yeast-hyphal transition” in assay [5]; “inhibiting growth, biofilm formation, and yeast-hyphal transition” in [6].

On to `CC1(C)CCC[C@]2(C)[C@H]3CC(=O)O[C@]3(C)CC[C@@H]12` [sclareolide, Sclareolide], for which, in [7] (setting [11]), the “Levels of epidermal lipids” value was “increase the levels of epidermal lipids”. In [7] (setting [12]), the Total lipid content result was “increased”. Also, in assay [8] (setting [11]), the “Levels of keratin 10” value was “increase the levels of keratin 10”. For the same compound, the “Keratin 10 expression” value in assay [8] (setting [12]) is on record as “increased”. The “Barrier function / penetration of Malassezia restricta in upper layers of the epidermis (histology)” value in assay [9] (96 h) is “prevented the disruption of the barrier function and the penetration of Malassezia restricta in the upper layers of the epidermis”. The “Decrease of interleukin-8 release” value in [9] (inflammation induced by Malassezia restricta, ELISA of supernatant at 96 h) is listed as 40,3%. For the same compound, in assay [10] (setting [13]), the “Concentration at which growth of Malassezia restricta was completely inhibited (MIC)” value was determined as 0.12% and the “Concentration from which growth of Malassezia restricta was significantly inhibited” value is reported as 0.015%.

Take `CC(=O)N1CCN(c2ccc(OCC3COC(Cn4ccnc4)(c4ccc(Cl)cc4Cl)O3)cc2)CC1` (stereo not drawn) [ketoconazole, reference compound]: the minimal inhibitory concentration (MIC) in assay [10] (Malassezia restricta, modified RPMI 1640) was determined as 0.0625 µg/mL (≈ 0.118 µM).

Usually MIC stands for the least concentration at which growth counts as inhibited.
